ChEMBL document CHEMBL6109128, “Copper-KRAS-COX2 Axis: A Therapeutic Vulnerability in Pancreatic Cancer” (J Med Chem, 2025)
Activity calls are given as the source filed them. The rule behind the calls is not given here.

Key:
SU.86.86 = assay: Cytotoxicity against human SU-86-86 cells by MTT assay; type: functional, cell-based
[1] = Oral bioavailability in CD-1 mouse at 30 mg/kg measured up to 24 hrs by LC-MS/MS analysis; type: ADME, organism-based; conditions: in vivo
HCT-116 [2] = assay: Induction of ferroptosis in human HCT-116 cells at up to 1 uM in presence of erastin; type: functional, cell-based
HCT-116 [3] = assay: Synergistic antiproliferative activity against human HCT-116 cells assessed as inhibition of colony formation at up to 1 uM incubated for 6 days in presence of MK-663; type: functional, cell-based; conditions: time 6.0 day
[4] = Drug concentration in mouse plasma at 30 mg/kg, po measured at 24 hrs; type: ADME, organism-based
CT26 [5] = assay: Synergistic antiproliferative activity against mouse CT26 cells at 0.01 to 3 uM in presence of MRTX1133; type: functional, cell-based; conditions: dose 0.01-3 µM
HCT-116 [6] = assay: Synergistic antiproliferative activity against human HCT-116 cells assessed as inhibition of colony formation at up to 1 uM incubated for 6 days in presence of CC-115; type: functional, cell-based; conditions: time 6.0 day
HCT-116 [7] = assay: Induction of ferroptosis in human HCT-116 cells at up to 1 uM in presence of FIN56; type: functional, cell-based
[8] = Metabolic stability in human liver microsome assessed as half life measured up to 60 mins by LC-MS/MS analysis; type: ADME; conditions: liver microsomes
HCT-116 [9] = assay: Induction of apoptosis in human HCT-116 cells assessed as upregulation of cleaved PARP level measured for 48 hrs by Western blot analysis; type: functional, cell-based; conditions: dose 10.0 µM
MIA PaCa-2 [10] = assay: Induction of apoptosis in human MIA PaCa-2 cells assessed as upregulation of caspase 9 level at 10 uM measured for 48 hrs by Western blot analysis; type: functional, cell-based
MIA PaCa-2 [11] = assay: Synergistic antiproliferative activity against human MIA PaCa-2 cells assessed as inhibition of colony formation at up to 1 uM in presence of ZnCl2; type: functional, cell-based
BXPC-3 [12] = assay: Induction of apoptosis in human BXPC-3 cells assessed as increase in clonogenic survival up to 0.5 uM incubated for 6 days in presence of Z-VAD-FMK by crystal violet staining based analysis; type: functional, cell-based; conditions: time 6.0 day
Panc02 = assay: Cytotoxicity against mouse Panc02 cells harboring wild type KRAS; type: functional, cell-based
HCT-116 [13] = assay: Induction of apoptosis in human HCT-116 cells assessed as increase in clonogenic survival up to 1 uM incubated for 6 days in presence of necrostatin-1 by crystal violet staining based analysis; type: functional, cell-based; conditions: time 6.0 day
[14] = Volume of distribution at steady state in CD-1 mouse at 15 mg/kg, iv measured up to 24 hrs by LC-MS/MS analysis; type: ADME, organism-based; conditions: in vivo, read-out: Vdss
HCT-116 [15] = assay: Induction of ferroptosis in human HCT-116 cells assessed as change in GPX4 level at 5 to 10 uM incubated for 18 hrs by Western blot analysis; type: functional, cell-based; conditions: dose 5-10 µM
[16] = Toxicity in BALB/c mouse assessed as kidney damage at 20 mg/kg, po measured after 29 days by H and E staining based analysis; type: organism-based; conditions: in vivo, 696 h, time 29 day
HCT-116 [17] = assay: Synergistic antiproliferative activity against human HCT-116 cells assessed as inhibition of colony formation at up to 1 uM incubated for 6 days in presence of rofecoxib; type: functional, cell-based; conditions: time 6.0 day
MIA PaCa-2 [18] = assay: Synergistic antiproliferative activity against human MIA PaCa-2 cells assessed as inhibition of colony formation at up to 1 uM incubated for 6 days in presence of rotec-oxib; type: functional, cell-based; conditions: time 6.0 day
HCT-116 [19] = assay: Induction of ferroptosis in human HCT-116 cells assessed as cell death at up to 1 uM in presence of ferrostatin-1; type: functional, cell-based
[20] = Cmax in CD-1 mouse at 30 mg/kg, po measured up to 24 hrs by LC-MS/MS analysis; type: ADME, organism-based; conditions: in vivo
HCT-116 [21] = assay: Induction of autophagy in human HCT-116 cells assessed as cell death at up to 1 uM incubated for 6 days in presence of MRT68921; type: functional, cell-based; conditions: time 6.0 day
[22] = Cytotoxicity against mouse KPC2 cells by MTT assay; type: functional, cell-based
HCT-116 [23] = assay: Synergistic antiproliferative activity against human HCT-116 cells assessed as inhibition of colony formation at up to 1 uM in presence of CuSO4; type: functional, cell-based
[24] = Drug concentration in mouse plasma at 15 mg/kg, iv measured at 24 hrs; type: ADME, organism-based
CT26 [25] = assay: Antitumor activity against mouse CT26 cells implanted in BALB/c mouse assessed as increase in animal survival at 100 mg/kg, po measured after 14 days; type: functional, organism-based; conditions: time 14.0 day
BXPC-3 [26] = assay: Induction of apoptosis in human BXPC-3 cells assessed as increase in clonogenic survival up to 0.5 uM incubated for 6 days in presence of necrostatin-1 by crystal violet staining based analysis; type: functional, cell-based; conditions: time 6.0 day
MIA PaCa-2 [27] = assay: Synergistic antiproliferative activity against human MIA PaCa-2 cells assessed as inhibition of colony formation at up to 1 uM incubated for 6 days in presence of lumira-coxib; type: functional, cell-based; conditions: time 6.0 day
MIA PaCa-2 [28] = assay: Synergistic antiproliferative activity against human MIA PaCa-2 cells assessed as inhibition of colony formation at up to 0.5 uM in presence of CuSO4; type: functional, cell-based
[29] = AUC in CD-1 mouse at 30 mg/kg, po measured up to 24 hrs by LC-MS/MS analysis; type: ADME, organism-based; conditions: in vivo
PANC-1 [30] = assay: Synergistic antiproliferative activity against human PANC-1 cells assessed as inhibition of colony formation at up to 1 uM incubated for 6 days in presence of valdecoxib; type: functional, cell-based; conditions: time 6.0 day
[31] = Toxicity in BALB/c mouse assessed as pancrease damage at 20 mg/kg, po measured after 29 days by H and E staining based analysis; type: organism-based; conditions: in vivo, 696 h, time 29 day
HCT-116 [32] = assay: Synergistic antiproliferative activity against human HCT-116 cells assessed as inhibition of colony formation at up to 1 uM incubated for 6 days in presence of AZD6738; type: functional, cell-based; conditions: time 6.0 day
[33] = AUC (0 to infinity) in CD-1 mouse at 30 mg/kg, po measured up to 24 hrs by LC-MS/MS analysis; type: ADME, organism-based; conditions: in vivo
MIA PaCa-2 [34] = assay: Induction of apoptosis in human MIA PaCa-2 cells assessed as upregulation of cleaved PARP level at 10 uM measured for 48 hrs by Western blot analysis; type: functional, cell-based
[35] = Metabolic stability in mouse liver microsome assessed as half life measured up to 60 mins by LC-MS/MS analysis; type: ADME; conditions: liver microsomes
PANC-1 [36] = assay: Antiproliferative activity against human PANC-1 cells assessed as cell death incubated for 6 hrs in presence of NS3694; type: functional, cell-based
HCT-116 [37] = assay: Synergistic antiproliferative activity against human HCT-116 cells assessed as inhibition of colony formation at up to 1 uM incubated for 6 days in presence of LY2603618; type: functional, cell-based; conditions: time 6.0 day
[38] = Clearance in CD-1 mouse at 15 mg/kg, iv measured up to 24 hrs by LC-MS/MS analysis; type: ADME, organism-based; conditions: in vivo
HCT-116 [39] = assay: Induction of autophagy in human HCT-116 cells assessed as cell death at up to 1 uM incubated for 6 days in presence of bafilomycin-A1; type: functional, cell-based; conditions: time 6.0 day

For `N[C@@H]1[C@H]2CN(c3cnc(C(=O)Nc4cc(F)cc5cccnc45)cn3)C[C@@H]12`, the IC50 (SU.86.86) was 1100 nM, the bioavailability [1] was 55.3% and the Activity (HCT-116 [2]) was “Active”. The Activity (HCT-116 [3]) was “Active”, the concentration at 24 h [4] was 7 ng/mL and the Activity (CT26 [5]) was “Active”. The Activity (HCT-116 [6]) was “Active”, the Activity (HCT-116 [7]) was “Active” and the half-life [8] was > 1 h. The Activity (HCT-116 [9]) was “Dose-dependent-effect”, the Activity (MIA PaCa-2 [10]) was “Active” and the Activity (MIA PaCa-2 [11]) was “Active”. The Activity (BXPC-3 [12]) was “Active”, the Activity (Panc02) was “inactive” and the Activity (HCT-116 [13]) was “Active”. For the same compound, the Vd [14] was 14.6 L/kg, the Activity (HCT-116 [15]) was “Active” and the Activity [16] was “Non-toxic”. The Activity (HCT-116 [17]) was “Active”, the Activity (MIA PaCa-2 [18]) was “Active” and the Activity (HCT-116 [19]) was “inactive”. The Cmax [20] was 364 ng/mL, the Activity (HCT-116 [21]) was “Active” and the IC50 [22] was 3400 nM. The Activity (HCT-116 [23]) was “Active”, the concentration at 24 h [24] was 7 ng/mL and the Activity (CT26 [25]) was “Active”. For the same compound, the Activity (BXPC-3 [26]) was “Active”, the Activity (MIA PaCa-2 [27]) was “Active” and the Activity (MIA PaCa-2 [28]) was “Active”. For the same compound, the AUC at 24 h [29] was 3780 ng·h/mL, the Activity (PANC-1 [30]) was “Active” and the Activity [31] was “Non-toxic”. The Activity (HCT-116 [32]) was “Active”, the AUC(0-inf) [33] was 3810 ng·h/mL and the Activity (MIA PaCa-2 [34]) was “Active”. For the same compound, the half-life [35] was > 1 h, the Activity (PANC-1 [36]) was “Active” and the Activity (HCT-116 [37]) was “Active”. For the same compound, the clearance [38] was 72.5 mL/min/kg and the Activity (HCT-116 [39]) was “Active”.
In the case of `C[C@@H]1OCC2(CCN(c3cnc(C(=O)Nc4cc(F)cc5cccnc45)cn3)CC2)[C@@H]1N`, the IC50 (SU.86.86) is reported as 800 nM, the bioavailability [1] is reported as 55.2% and the Activity (HCT-116 [2]) is reported as “Active”. The Activity (HCT-116 [3]) was “Active”, the Activity (CT26 [5]) was “Active” and the Activity (HCT-116 [6]) was “Active”. The Activity (HCT-116 [7]) was “Active”, the half-life [8] was > 1 h and the Activity (MIA PaCa-2 [10]) was “Active”. For the same compound, the Activity (MIA PaCa-2 [11]) was “Active”, the Activity (BXPC-3 [12]) was “Active” and the Activity (Panc02) was “inactive”. For the same compound, the Activity (HCT-116 [13]) was “Active”, the Vd [14] was 7.1 L/kg and the Activity (HCT-116 [15]) was “Active”. For the same compound, the Activity (HCT-116 [17]) was “Active”, the Activity (MIA PaCa-2 [18]) was “Active” and the Activity (HCT-116 [19]) was “inactive”. For the same compound, the Cmax [20] was 1020 ng/mL, the Activity (HCT-116 [21]) was “Active” and the IC50 [22] was 1900 nM. The Activity (HCT-116 [23]) was “Active”, the Activity (BXPC-3 [26]) was “Active” and the Activity (MIA PaCa-2 [27]) was “Active”. For the same compound, the Activity (MIA PaCa-2 [28]) was “Active”, the AUC at 24 h [29] was 6640 ng·h/mL and the Activity (PANC-1 [30]) was “Active”. The Activity (HCT-116 [32]) was “Active”, the AUC(0-inf) [33] was 6800 ng·h/mL and the Activity (MIA PaCa-2 [34]) was “Active”. The half-life [35] was > 1 h, the Activity (PANC-1 [36]) was “Active” and the Activity (HCT-116 [37]) was “Active”. The clearance [38] was 37.7 mL/min/kg and the Activity (HCT-116 [39]) was “Active”.
